Results as given in article PMC11108815 (Heliyon, 2024).
Marks after values point to notes of the source that are not given here. Blank lines part the entries; values can stand above or below the compound they belong to.

How the values were obtained:
[1] = Pharmacokinetics in rat plasma; format: in vivo, Wistar rats; conditions: for Cmax in FT compared with FS: normal group; for AUC(0-inf): AUC0-∞; for CL/F: CLz/F; for MRT last: MRT0-t; for MRT inf: MRT0-∞; for Cmax after modeling compared with control group: oral administration of FS; for shape of the drug-time curve: both the control and model groups treated with oral FS or FT
[2] = Stability test of QC samples; format: physicochemical, rat
[3] = FS-C: normal (blank) rats, oral FS 100 mg kg^−1, n = 6
[4] = FS-M: microcirculation dysfunction model rats, oral FS 100 mg kg^−1, n = 6
[5] = FT-C: normal (blank) rats, oral FT 100 mg kg^−1, n = 6
[6] = FT-M: microcirculation dysfunction model rats, oral FT 100 mg kg^−1, n = 6
[7] = Store at 4 °C for 24 h, high concentration QC sample in rat plasma
[8] = Store at 4 °C for 24 h, low concentration QC sample in rat plasma
[9] = Store at 4 °C for 24 h, medium concentration QC sample in rat plasma
[10] = Store at room temperature for 12 h, high concentration QC sample in rat plasma
[11] = Store at room temperature for 12 h, low concentration QC sample in rat plasma
[12] = Store at room temperature for 12 h, medium concentration QC sample in rat plasma
[13] = Store at −20 °C for 20 days, high concentration QC sample in rat plasma
[14] = Store at −20 °C for 20 days, low concentration QC sample in rat plasma
[15] = Store at −20 °C for 20 days, medium concentration QC sample in rat plasma
[16] = Three freeze-thaw cycles, high concentration QC sample in rat plasma
[17] = Three freeze-thaw cycles, low concentration QC sample in rat plasma
[18] = Three freeze-thaw cycles, medium concentration QC sample in rat plasma
[19] = Wistar, rat, plasma, po, 100 mg/kg, AUC0-t, FT-C: normal (blank) rats, oral FT 100 mg kg^−1, n = 6
[20] = Wistar, rat, plasma, po, 100 mg/kg, FT-C: normal (blank) rats, oral FT 100 mg kg^−1, n = 6
[21] = Wistar, rat, plasma, po, 100 mg/kg, Cmax, FT-C: normal (blank) rats, oral FT 100 mg kg^−1, n = 6
[22] = Wistar, rat, plasma, po, 100 mg/kg, T1/2, FT-C: normal (blank) rats, oral FT 100 mg kg^−1, n = 6
[23] = Wistar, rat, plasma, po, 100 mg/kg, Tmax, FT-C: normal (blank) rats, oral FT 100 mg kg^−1, n = 6
[24] = Wistar, rat, plasma, po, 100 mg/kg, Tmax, control group, after oral administration of FS or FT
[25] = Wistar, rat, plasma, po, 100 mg/kg, AUC0-t, FS-C: normal (blank) rats, oral FS 100 mg kg^−1, n = 6
[26] = Wistar, rat, plasma, po, 100 mg/kg, FS-C: normal (blank) rats, oral FS 100 mg kg^−1, n = 6
[27] = Wistar, rat, plasma, po, 100 mg/kg, Cmax, FS-C: normal (blank) rats, oral FS 100 mg kg^−1, n = 6
[28] = Wistar, rat, plasma, po, 100 mg/kg, T1/2, FS-C: normal (blank) rats, oral FS 100 mg kg^−1, n = 6
[29] = Wistar, rat, plasma, po, 100 mg/kg, Tmax, FS-C: normal (blank) rats, oral FS 100 mg kg^−1, n = 6

AUC0-∞ [1, 3]: 33.09 ± 32.59 ng·h/mL
AUC(0-t) [1, 3]: 30.14 ± 25.77 ng·h/mL
CLz/F [1, 3]: 1061 ± 557.5 mL/min/kg
Cmax [1, 3]: 11.01 ± 2.17 ng/mL
MRT0-t [1, 3]: 3.65 ± 4.31 h
MRT0-∞ [1, 3]: 4.61 ± 6.46 h
T1/2 [1, 3]: 7.30 ± 4.55 h
Tmax [1, 3]: 0.67 ± 0.26 h
AUC0-∞ [1, 4]: 55.32 ± 49.60 ng·h/mL
AUC(0-t) [1, 4]: 39.25 ± 24.96 ng·h/mL
CLz/F [1, 4]: 689.2 ± 416.2 mL/min/kg
Cmax [1, 4]: 11.09 ± 3.14 ng/mL
MRT0-t [1, 4]: 4.52 ± 4.05 h
MRT0-∞ [1, 4]: 10.25 ± 12.88 h
T1/2 [1, 4]: 8.45 ± 8.99 h
Tmax [1, 4]: 0.75 ± 0.27 h
AUC0-∞ [1, 5]: 30.07 ± 23.22 ng·h/mL
AUC(0-t) [1, 5]: 29.34 ± 21.99 ng·h/mL
CLz/F [1, 5]: 1134 ± 771.3 mL/min/kg
Cmax [1, 5]: 7.05 ± 1.64 ^b μg·L^−1
MRT0-t [1, 5]: 4.27 ± 3.46 h
MRT0-∞ [1, 5]: 4.55 ± 3.95 h
T1/2 [1, 5]: 3.31 ± 1.82 h
Tmax [1, 5]: 0.28 ± 0.14 ^b h
AUC0-∞ [1, 6]: 40.99 ± 46.75 ng·h/mL
AUC(0-t) [1, 6]: 29.64 ± 22.98 ng·h/mL
CLz/F [1, 6]: 1061 ± 726.2 mL/min/kg
Cmax [1, 6]: 8.95 ± 6.01 ng/mL
MRT0-t [1, 6]: 3.90 ± 3.23 h
MRT0-∞ [1, 6]: 8.76 ± 14.72 h
T1/2 [1, 6]: 10.67 ± 9.80 h
Tmax [1, 6]: 1.22 ± 0.66 ^f h
Cmax in FT compared with FS ([1]; p < 0.01, 0.05): significantly lower
Stability, Accuracy (RE, %) [2, 7]: 7.30%
Stability, Accuracy (RE, %) [2, 8]: −9.02%
Stability, Accuracy (RE, %) [2, 9]: −3.01%
Stability, Accuracy (RE, %) [2, 10]: −13.32%
Stability, Accuracy (RE, %) [2, 11]: 4.15%
Stability, Accuracy (RE, %) [2, 12]: 1.94%
Stability, Accuracy (RE, %) [2, 13]: −1.60%
Stability, Accuracy (RE, %) [2, 14]: −1.94%
Stability, Accuracy (RE, %) [2, 15]: 4.74%
Stability, Accuracy (RE, %) [2, 16]: −3.54%
Stability, Accuracy (RE, %) [2, 17]: −5.18%
Stability, Accuracy (RE, %) [2, 18]: 7.92%
Compound: O=C(/C=C/c1ccc(O)c2oc(-c3ccc(O)c(O)c3)cc12)O[C@H](Cc1ccc(O)c(O)c1)C(=O)O [Salvianolic acid C]

AUC(0-t) [1, 19]: 77.9 ± 11.9 ng·h/mL
AUC(0-inf) [1, 20]: 116 ± 83.4 ng·h/mL
CL/F [1, 20]: 342 mL/min/kg
Cmax [1, 21]: 5.77 ± 0.62 ng/mL
MRT last [1, 20]: 7.51 ± 0.81 h
MRT inf [1, 20]: 15.4 ± 18.6 h
half-life [1, 22]: 7.39 ± 14.3 h
Tmax [1, 23]: 1.06 ± 1.47 h
Tmax [1, 24]: > 0.47 h
Stability, Accuracy (RE, %) [2, 7]: 0.42%
Stability, Accuracy (RE, %) [2, 8]: 3.07%
Stability, Accuracy (RE, %) [2, 9]: 7.93%
Stability, Accuracy (RE, %) [2, 10]: 11.51%
Stability, Accuracy (RE, %) [2, 11]: −6.74%
Stability, Accuracy (RE, %) [2, 12]: 0.45%
Stability, Accuracy (RE, %) [2, 13]: −1.16%
Stability, Accuracy (RE, %) [2, 14]: 7.31%
Stability, Accuracy (RE, %) [2, 15]: −5.30%
Stability, Accuracy (RE, %) [2, 16]: 4.10%
Stability, Accuracy (RE, %) [2, 17]: −8.01%
Stability, Accuracy (RE, %) [2, 18]: −5.39%
Compound: C[C@@H]1O[C@@H](OC[C@H]2O[C@@H](Oc3c(-c4ccc(O)c(O)c4)oc4cc(O)cc(O)c4c3=O)[C@H](O)[C@@H](O)[C@@H]2O)[C@H](O)[C@H](O)[C@H]1O [Rutin]

AUC(0-t) [1, 25]: 37.2 ± 11.5 ng·h/mL
AUC(0-t) [1, 19]: 31.7 ± 12 ng·h/mL
AUC(0-inf) [1, 26]: 40.5 ± 18.6 ng·h/mL
AUC(0-inf) [1, 20]: 44.4 ± 30.2 ng·h/mL
CL/F [1, 26]: 5.67 mL/min/kg
CL/F [1, 20]: 10.2 mL/min/kg
Cmax [1, 27]: 5.78 ± 0.23 ng/mL
Cmax [1, 21]: 4.65 ± 0.38 ng/mL
MRT last [1, 26]: 5.78 ± 2.57 h
MRT last [1, 20]: 5.61 ± 2.5 h
MRT inf [1, 26]: 7.21 ± 5.95 h
MRT inf [1, 20]: 10.7 ± 10.2 h
half-life [1, 28]: 3.62 ± 4.88 h
Tmax [1, 29]: 0.72 ± 0.31 h
Tmax [1, 23]: 0.61 ± 0.68 h
Tmax [1, 24]: > 0.47 h
Cmax in FT compared with FS ([1]; p < 0.01, 0.05): significantly lower
Cmax after modeling compared with control group [1]: decreased
AUC0-t after modeling compared with control group ([1]; oral administration of FT): increased
Stability, Accuracy (RE, %) [2, 7]: 2.95%
Stability, Accuracy (RE, %) [2, 8]: 6.27%
Stability, Accuracy (RE, %) [2, 9]: −2.07%
Stability, Accuracy (RE, %) [2, 10]: 5.38%
Stability, Accuracy (RE, %) [2, 11]: −2.45%
Stability, Accuracy (RE, %) [2, 12]: 2.52%
Stability, Accuracy (RE, %) [2, 13]: 3.39%
Stability, Accuracy (RE, %) [2, 14]: −12.26%
Stability, Accuracy (RE, %) [2, 15]: 0.41%
Stability, Accuracy (RE, %) [2, 16]: 12.71%
Stability, Accuracy (RE, %) [2, 17]: 3.68%
Stability, Accuracy (RE, %) [2, 18]: 11.31%
Compound: O=C(O)/C=C/c1ccc(O)c(O)c1 [Caffeic acid]

AUC(0-t) [1, 25]: 107 ± 46.1 ng·h/mL
AUC(0-t) [1, 19]: 122 ± 30.9 ng·h/mL
AUC(0-inf) [1, 26]: 168 ± 139 ng·h/mL
AUC(0-inf) [1, 20]: 162 ± 87.3 ng·h/mL
CL/F [1, 26]: 74.8 mL/min/kg
CL/F [1, 20]: 37 mL/min/kg
Cmax [1, 27]: 13.2 ± 8.35 ng/mL
Cmax [1, 21]: 8.58 ± 1.35 ng/mL
MRT last [1, 26]: 7.12 ± 2.26 h
MRT last [1, 20]: 8.8 ± 1.62 h
MRT inf [1, 26]: 17 ± 17.6 h
MRT inf [1, 20]: 15 ± 11.6 h
half-life [1, 28]: 9.92 ± 13.7 h
half-life [1, 22]: 7.38 ± 9.48 h
Tmax [1, 29]: 0.63 ± 0.42 h
Tmax [1, 23]: 0.56 ± 0.36 h
Tmax [1, 24]: > 0.47 h
shape of the drug-time curve [1]: bimodal phenomenon
Stability, Accuracy (RE, %) [2, 7]: −0.93%
Stability, Accuracy (RE, %) [2, 8]: 1.81%
Stability, Accuracy (RE, %) [2, 9]: 11.49%
Stability, Accuracy (RE, %) [2, 10]: 3.31%
Stability, Accuracy (RE, %) [2, 11]: −1.96%
Stability, Accuracy (RE, %) [2, 12]: −3.89%
Stability, Accuracy (RE, %) [2, 13]: 2.45%
Stability, Accuracy (RE, %) [2, 14]: 7.09%
Stability, Accuracy (RE, %) [2, 15]: −9.12%
Stability, Accuracy (RE, %) [2, 16]: −10.32%
Stability, Accuracy (RE, %) [2, 17]: 1.08%
Stability, Accuracy (RE, %) [2, 18]: 11.33%
Compound: O=C(/C=C/c1ccc(O)c(O)c1/C=C/c1ccc(O)c(O)c1)O[C@H](Cc1ccc(O)c(O)c1)C(=O)O [Salvianolic acid A]

AUC(0-t) [1, 25]: 128 ± 40.5 ng·h/mL
AUC(0-t) [1, 19]: 119 ± 48.8 ng·h/mL
AUC(0-inf) [1, 26]: 164 ± 85 ng·h/mL
AUC(0-inf) [1, 20]: 119 ± 48.9 ng·h/mL
CL/F [1, 26]: 150 mL/min/kg
CL/F [1, 20]: 289 mL/min/kg
Cmax [1, 27]: 11.4 ± 1.33 ng/mL
Cmax [1, 21]: 13.7 ± 2.76 ng/mL
MRT last [1, 26]: 6.61 ± 1.61 h
MRT last [1, 20]: 8.67 ± 3.71 h
MRT inf [1, 26]: 11.1 ± 10.8 h
MRT inf [1, 20]: 8.67 ± 3.71 h
half-life [1, 28]: 5.06 ± 8.9 h
half-life [1, 22]: 1.03 ± 0.45 h
Tmax [1, 29]: 0.31 ± 0.16 h
Tmax [1, 23]: 0.22 ± 0.13 h
Tmax [1, 24]: < 0.39 h
AUC0-t in model group compared with control group ([1]; after modeling, p < 0.01, 0.05): significantly higher
shape of the drug-time curve [1]: bimodal phenomenon
Cmax after modeling compared with control group [1]: increased
Stability, Accuracy (RE, %) [2, 7]: 7.65%
Stability, Accuracy (RE, %) [2, 8]: 6.82%
Stability, Accuracy (RE, %) [2, 9]: 6.58%
Stability, Accuracy (RE, %) [2, 10]: 11.92%
Stability, Accuracy (RE, %) [2, 11]: −5.80%
Stability, Accuracy (RE, %) [2, 12]: 0.69%
Stability, Accuracy (RE, %) [2, 13]: −0.73%
Stability, Accuracy (RE, %) [2, 14]: −8.45%
Stability, Accuracy (RE, %) [2, 15]: 0.15%
Stability, Accuracy (RE, %) [2, 16]: −10.67%
Stability, Accuracy (RE, %) [2, 17]: 6.56%
Stability, Accuracy (RE, %) [2, 18]: 9.01%
Compound: O=C(/C=C/c1ccc(O)c2c1[C@H](C(=O)O)[C@@H](c1ccc(O)c(O)c1)O2)O[C@H](Cc1ccc(O)c(O)c1)C(=O)O [Lithospermic acid]
